Columns and labels:
[1] = target: T1, CFTR (Homo sapiens, UniProt P13569); test: Forskolin-induced swelling assay on hPSC-derived cystic structures; format: cell-based; details: hPSC-derived cysts
T1 construct: hPSC-derived cyst structures generated in 3D gels contain functional CFTR protein; endogenous in cells; host or cells: cysts from H9 hESC- and Y2-1 iPSC-derived cholangiocytes
Source text: F/I stimulated cyst swelling was quantified using velocity imaging software. The total size of the cysts is normalized to that prior to F/I stimulation. Values are from three individual experiments.
With this assay, activation of the cAMP pathway by the addition of Forskolin/IBMX increases CFTR function resulting in fluid transport and swelling of the cyst. Swelling can be visualized following staining with calcein green, a cell-permeable fluorescent dye (FIG. 18a).

[2] = system: iPSC-derived cholangiocytes; test: Cyst formation in 3D gel culture of iPSC-derived cholangiocytes; format: cell-based, human; details: normal iPSC-derived cholangiocytes
Source text: After embedding in collagen/Matrigel culture, cyst formation was induced from the aggregates by the addition of forskolin for the first week of the two-week culture period (left). Without forskolin stimulation, the CF-iPSCs derived cholangiocytes formed branched ductal structure rather than hollow cysts (right).
CF-iPSCs derived cholangiocytes were maintained in the 3D gel conditions in the presence or absence of forskolin for the first week of the two weeks culture period (left graph). Normal iPS cells-derived cholangiocytes were maintained in the presence or absence of CFTR inhibitor for the first week of the two-week culture periods (right graph). […] Addition of the CFTR inhibitor to normal iPSC-derived cholangiocytes delayed cyst formation (right graph).
Both hiPSC lines generated hepatoblast populations with kinetics similar to those observed for wild type hPSCs (FIG. 24a, b). […] However, many of the cysts that developed from the patient iPSC we not completely hollow, but rather contained branched ductal structures (FIG. 19c).

[3] = system: hPSCs; test: Definitive endoderm induction with CHIR99021 replacing Wnt3a, flow cytometry; format: cell-based, human; details: in combination with activin
Procedure: CHIR99021 is a selective inhibitor of GSK3 that has been reported to mimic the canonical Wnt signal pathway. CHIR99021 was tested as a replacement of wnt3a (e.g. added in combination with activin) in inducing Embryoid bodies and monolayer induction for definitive endoderm cells from hPSCs. […] At day 0, the cells were cultured in a RPMI based medium supplemented with glutamine (2 mM), MTG (4.5×10^−4 M: Sigma), activin A (100 ng/ml), CHIR99021 (0.3 μM) or Wnt3a (25 ng/ml). […] The media was changed every the other day. At day 7, the definitive endoderm was specified to a hepatic fate by treatment with FGF and BMP pathway agonists, as described above.

[4] = system: other kinases; details: in vitro kinase assays; cited from earlier work
[5] = system: hESC-derived embryoid bodies; test: Endoderm induction in hESC-derived embryoid bodies, flow cytometry; format: cell-based, human; details: day six EBs
Procedure: Similar to protocols using monolayer cultures^16, it involves specific steps that recapitulate the critical stages of liver development in the early embryo. EBs are formed from small aggregates by culture for 24 hours in low levels of BMP4, as previously described^18. The EBs are subsequently exposed to high concentrations of activin A (hereafter referred to as activin) for five days to induce definitive endoderm, a population defined by expression of the surface markers CXCR4, CKIT and EPCAM and the transcription factors SOX17 and FOXA2.
Addition of Wnt3A to the activin-induced EB cultures led to reproducible increases in the proportion of CXCR4^+, SOX17^+ and FOXA2^+ cells within the EBs (FIG. 1c). With the increase in CXCR4 expression, the proportion of CKIT^+CXCR4^+ and CXCR4^+EPCAM^+ cells increased to greater than 95% of the population. […] Endoderm induction in the EBs was influenced by the base culture media used. StemPro34 supported more efficient endoderm induction than neural basal media that we used previously (FIG. 1f). The induction of highly enriched endoderm is an important first step in the efficient and reproducible generation of hepatocyte-like cells from hPSCs.
(§1) Media was changed every 3 days.
Flow cytometric analyses were performed as described previously^45. […] Stained cells were analyzed using an LSRII flow cytometer (BD).

[6] = system: day six EB-derived monolayer cells; test: Extended activin treatment of EB-derived monolayer cells, flow cytometry; format: cell-based, human
Procedure: FIG. 3A is an intracellular flow cytometric analysis showing the proportion of SOX17^+ and FOXA2^+ cells in day six activin/Wnt3A-induced EBs as well as in monolayer populations derived from them. The monolayer populations were cultured either directly in the specification media (−activin) or for two days in activin (50 ng/ml) and then in the specification media (+activin). Populations were analyzed following two or four days culture in the specification media (total days eight and 10 for the −activin group and days 10 and 12 for the +activin group). Bars represent standard deviation (SD) of the mean of three independent experiments.
FIG. 3E is a flow cytometric analysis showing the proportion of CD31^+ CD90^+ and EPCAM^+ cells in monolayer populations derived from activin treated (day 26) and non-treated (day 24) endoderm. […] In contrast, a higher portion of EPCAM^+ cells was detected in the population derived from the activin-treated endoderm compared to the population generated from the non-treated cells (EPCAM: 90.7+/−2.7% vs 56.8+/−7.3%; P<0.01, n=3).
It was not known if prolonged signaling would be useful with human PSC. The effect of increasing the duration of this signaling pathway was extended in the human system by culturing the monolayer cells for two days in activin prior to the FGF/BMP4 specification step. […] Without being bound by theory, since the total cell number was lower in the treated population (FIG. 3b) it is possible that activin signaling at this stage preferentially supports the survival of endodermal cells.
as §1
Flow cytometric analyses were performed as described previously^45. For cell surface markers, staining was carried out in PBS with 10% FCS. For intracellular proteins, staining was performed on cells fixed with 4% paraformaldehyde (Electron Microscopy Science, Hatfield, PA, USA) in PBS. Cells were permeabilized with 90% ice-cold methanol for 20 minutes for Sox17 and FoxA2 staining as previously described^45. Albumin and alpha-fetoprotein staining was performed in PBS with 10% FCS and 0.5% saponin (Sigma). Stained cells were analyzed using an LSRII flow cytometer (BD).

[7] = system: H9 hESCs, H1 hESCs and 38-2 iPSCs; test: Hepatic specification from other hPSC lines, flow cytometry; format: cell-based, human
Source text: To determine whether the approach detailed above is broadly applicable to different human pluripotent stem cell lines the protocol was used to differentiate the hESC lines H9 and H1 as well as an induced pluripotent cell (iPSC) line 38-2 to a hepatic fate. Day six EBs from all three lines contained high proportions of CKIT^+CXCR4^+ and CKIT^EPCAM* cells following the Wnt3a/activin induction step (FIG. 7a). Although the proportion of EPCAIVT cells was high in all EBs, the H9-derived cells expressed substantially higher levels of EPCAM than cells generated from the other lines. The levels of EPCAM expression correlated with the degree of endoderm induction, as greater than 95% of the H9-derived population expressed SOX17^+ and FOXA2^+ whereas only 65-70% of the iPSC-derived cells expressed these transcription factors (FIG. 7a). These findings indicate that surface marker analysis alone is not sufficient to monitor endoderm development and that quantitative analyses of SOX17 and FOXA2 expression is required to measure induction of this germ layer. As observed with the HES2 cells, extended activin/nodal signaling improved hepatic development of the CKIT^+CXCR4^+ population from each line (FIG. 7b). However, the duration of activin treatment necessary to generate significant levels of ALB expression varied between cell lines. Whereas higher levels of ALB expression were achieved following two days of activin treatment with H9-derived cells, both H1 and 38-2 cells required four days of additional activin signaling. With this treatment, it was possible to generate cultures consisting of 90%, 85% and 70% ALB^+ cells from the H9, H1 and 38-2 cell lines, respectively (FIG. 7c).
as §1
Flow cytometric analyses were performed as described previously^45. For cell surface markers, staining was carried out in PBS with 10% FCS. For intracellular proteins, staining was performed on cells fixed with 4% paraformaldehyde (Electron Microscopy Science, Hatfield, PA, USA) in PBS. […] Stained cells were analyzed using an LSRII flow cytometer (BD).

[8] = day 10/12, two days activin 50 ng/ml before specification media
[9] = monolayer from activin treated endoderm, day 26

T1 sequence (P13569 whole entry): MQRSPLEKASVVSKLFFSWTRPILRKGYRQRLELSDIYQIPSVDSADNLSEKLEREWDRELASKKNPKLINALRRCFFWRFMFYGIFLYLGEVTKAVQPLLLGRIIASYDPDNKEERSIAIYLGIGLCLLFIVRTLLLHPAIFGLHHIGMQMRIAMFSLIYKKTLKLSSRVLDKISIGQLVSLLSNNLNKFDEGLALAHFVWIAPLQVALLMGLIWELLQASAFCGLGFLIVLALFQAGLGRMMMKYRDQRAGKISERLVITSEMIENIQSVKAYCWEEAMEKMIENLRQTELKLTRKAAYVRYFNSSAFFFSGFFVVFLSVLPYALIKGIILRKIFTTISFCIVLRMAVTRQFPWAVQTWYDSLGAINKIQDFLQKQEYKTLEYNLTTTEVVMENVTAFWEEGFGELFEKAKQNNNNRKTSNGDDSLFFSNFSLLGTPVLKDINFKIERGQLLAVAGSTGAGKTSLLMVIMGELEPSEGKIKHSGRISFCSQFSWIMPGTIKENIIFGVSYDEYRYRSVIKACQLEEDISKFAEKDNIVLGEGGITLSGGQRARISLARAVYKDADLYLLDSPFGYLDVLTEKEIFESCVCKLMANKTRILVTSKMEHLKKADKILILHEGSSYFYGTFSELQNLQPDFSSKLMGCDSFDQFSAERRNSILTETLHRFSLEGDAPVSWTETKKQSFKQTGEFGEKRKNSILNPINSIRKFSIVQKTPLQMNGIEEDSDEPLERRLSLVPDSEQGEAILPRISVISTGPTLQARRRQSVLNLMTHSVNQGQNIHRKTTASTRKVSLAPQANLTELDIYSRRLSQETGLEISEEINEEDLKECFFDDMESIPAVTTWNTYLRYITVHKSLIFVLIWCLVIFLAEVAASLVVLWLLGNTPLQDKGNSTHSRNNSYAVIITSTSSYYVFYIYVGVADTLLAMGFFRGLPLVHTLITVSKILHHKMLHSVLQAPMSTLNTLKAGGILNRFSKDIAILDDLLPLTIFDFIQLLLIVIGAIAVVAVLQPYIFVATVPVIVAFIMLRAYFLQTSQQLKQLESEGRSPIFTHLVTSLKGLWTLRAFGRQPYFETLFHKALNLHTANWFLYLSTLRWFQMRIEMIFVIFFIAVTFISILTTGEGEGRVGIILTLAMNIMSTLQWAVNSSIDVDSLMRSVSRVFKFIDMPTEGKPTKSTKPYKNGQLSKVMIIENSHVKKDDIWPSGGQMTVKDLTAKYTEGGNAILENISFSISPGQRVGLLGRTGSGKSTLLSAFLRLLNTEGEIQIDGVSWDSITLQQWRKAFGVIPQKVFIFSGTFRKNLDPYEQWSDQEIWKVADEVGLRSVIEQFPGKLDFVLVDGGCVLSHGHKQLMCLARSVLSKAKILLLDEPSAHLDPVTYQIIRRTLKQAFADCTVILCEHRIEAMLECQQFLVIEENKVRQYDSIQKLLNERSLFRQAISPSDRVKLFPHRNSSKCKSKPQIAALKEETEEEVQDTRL

## O=C(O)c1ccc(/C=C2\SC(=S)N(c3cccc(C(F)(F)F)c3)C2=O)cc1 [CFTRinh-172]
[1]
  effect on Forskolin/IBMX induced swelling: blocked
[2]
  cyst formation: delayed

## Cc1c[nH]c(-c2cnc(NCCNc3ccc(C#N)cn3)nc2-c2ccc(Cl)cc2Cl)n1 [CHIR 99021]
[3]
  proportion of CKIT+CXCR4+ and CXCR4+EPCAM+ cells: greater than 95%
[4]
  effect on other kinases: little effect

## activin: Activin A, nodal agonist
[5]
  proportion co-expressing CXCR4 and CKIT or CXCR4 and EPCAM: greater than 90%
[6]; [8]
  proportion of FOXA2+ cells: 92.7+/−2.5%
  proportion of SOX17+ cells: 73.3+/−7.5%
[6]; days 8/10, two days activin 50 ng/ml before specification media
  proportion of FOXA2+ cells: 96.1+/−0.9%
[6]; [9]
  proportion of CD31+ cells: 0.49+/−0.11%
  proportion of CD90+ cells: 8.5+/−1.19%
  proportion of EPCAM+ cells: 90.7+/−2.7%
[7]; 38-2, four days additional activin
  ALB+ cells: 70%
[7]; H1, four days additional activin
  ALB+ cells: 85%
[7]; H9, two days additional activin
  ALB+ cells: 90%
